Assay results as given in patent publication US7507748B2, “Substituted aryl-amine derivatives and methods of use” (Amgen Inc., priority 2004, dated 2009).

system: Human Umbilical Vein Endothelial cells; assay: VEGF-stimulated HUVEC proliferation assay; format: cell-based; conditions: 72 h, CyQuant, read-out: inhibited VEGF-stimulated HUVEC proliferation at a level
Procedure: Human Umbilical Vein Endothelial cells are purchased from Clonetics, Inc., as cryopreserved cells harvested from a pool of donors. These cells, at passage 1, are thawed and expanded in EBM-2 complete medium, until passage 2 or 3. The cells are trypsinized, washed in DMEM+10% FBS+antibiotics, and spun at 1000 rpm for 10 min. Prior to centrifugation of the cells, a small amount is collected for a cell count. After centrifugation, the medium is discarded, and the cells are resuspended in the appropriate volume of DMEM+10% FBS+antibiotics to achieve a concentration of 3×10^5 cells/mL. Another cell count is performed to confirm the cell concentration. The cells are diluted to 3×10^4 cells/mL in DMEM+10% FBS+antibiotics, and 100 μL of cells are added to a 96-well plate. The cells are incubated at 37° C. for 22 h.
Prior to the completion of the incubation period, compound dilutions are prepared. Five-point, five-fold serial dilutions are prepared in DMSO, at concentrations 400-fold greater than the final concentrations desired. 2.5 μL of each compound dilution are diluted further in a total of 1 mL DMEM+10% FBS+antibiotics (400× dilution). Medium containing 0.25% DMSO is also prepared for the 0 μM compound sample. At the 22-hour timepoint, the medium is removed from the cells, and 100 μL of each compound dilution is added. The cells are incubated at 37° C. for 2-3 h.
During the compound pre-incubation period, the growth factors are diluted to the appropriate concentrations. Solutions of DMEM+10% FBS+antibiotics, containing either VEGF or bFGF at the following concentrations: 50, 10, 2, 0.4, 0.08, and 0 ng/mL are prepared. For the compound-treated cells, solutions of VEGF at 550 ng/mL or bFGF at 220 ng/mL for 50 ng/mL or 20 ng/mL final concentrations, respectively, are prepared since 10 μL of each will be added to the cells (110 μL final volume). At the appropriate time after adding the compounds, the growth factors are added. VEGF is added to one set of plates, while bFGF is added to another set of plates. For the growth factor control curves, the media on wells B4-G6 of plates 1 and 2 are replaced with media containing VEGF or bFGF at the varying concentrations (50-0 ng/mL). The cells are incubated at 37° C. for an additional 72 h.
At the completion of the 72 h incubation period, the medium is removed, and the cells are washed twice with PBS. After the second wash with PBS, the plates are tapped gently to remove excess PBS, and the cells are placed at −70° C. for at least 30 min. The cells are thawed and analyzed using the CyQuant fluorescent dye (Molecular Probes C-7026), following the manufacturer's recommendations. The plates are read on a Victor/Wallac 1420 workstation at 485 nm/530 nm (excitation/emission). Raw data are collected and analyzed using a 4-parameter fit equation in XLFit. IC50 values are then determined.

SMILES	IC50
CC1(C)CNCc2cc(NC(=O)c3cccnc3Nc3ccc4c(c3)OC(F)(F)O4)ccc21 [Example 22, 2-(2,2-Difluoro-benzo[1,3]dioxol-5-ylamino)-N-(4,4-dimethyl-1,2,3,4-tetrahydro-isoquinolin-7-yl)-nicotinamide]	< 1 µM
COC(c1ccc(NC(=O)c2cccnc2Nc2ccc3ccncc3c2)cc1)(C(F)(F)F)C(F)(F)F [Example 10, 2-(Isoquinolin-7-ylamino)-N-[4-(2,2,2-trifluoro-1-methoxy-1-trifluoromethyl-ethyl)-phenyl]-nicotinamide]	< 1 µM
Cc1cc(NC(=O)c2cccnc2Nc2ccc3ccncc3c2)ccc1C(F)(F)C(F)(F)F [Example 48, 2-(Isoquinolin-7-ylamino)-N-(3-methyl-4-pentafluoroethyl-phenyl)-nicotinamide]	< 1 µM
Cc1ccc(NC(=O)c2cccnc2Nc2ccc3ccncc3c2)cc1Cl [Example 60, N-(3-chloro-4-methylphenyl)-2-(isoquinolin-7-ylamino)nicotinamide]	< 1 µM
CC(C)(C)c1cc(NC(=O)c2cccnc2Nc2cccc3cnccc23)on1 [Example 71, N-(3-tert-butylisoxazol-5-yl)-2-(isoquinolin-5-ylamino)nicotinamide]	< 1 µM
CC(C)(C)OC(=O)NCC(=O)N1Cc2cc(NC(=O)c3cccnc3Nc3ccc4ccncc4c3)ccc2C(C)(C)C1 [Example 73, [2-(7-{[2-(Isoquinolin-7-ylamino)-pyridine-3-carbonyl]-amino}-4,4-dimethyl-3,4-dihydro-1H-isoquinolin-2-yl)-2-oxo-ethyl]-carbamic acid tert-butyl ester]	< 1 µM
CC1(C)CNCc2cc(NC(=O)c3cccnc3Nc3ccc4ccncc4c3)ccc21 [Example 41, N-(4,4-Dimethyl-1,2,3,4-tetrahydro-isoquinolin-7-yl)-2-(isoquinolin-7-ylamino)-nicotinamide]	< 1 µM
CC1(C)CCNc2cc(NC(=O)c3ccccc3Nc3ccc4ncncc4c3)ccc21 [Example 30, N-(4,4-Dimethyl-1,2,3,4-tetrahydro-quinolin-7-yl)-2-(quinazolin-6-ylamino)-benzamide]	< 1 µM
Cc1nc2cc(NC(=O)c3cccnc3Nc3ccc4[nH]nnc4c3)ccc2s1 [Example 23, 2-(1H-Benzotriazol-5-ylamino)-N-(2-methyl-benzothiazol-5-yl)-nicotinamide]	< 1 µM
CC1(C)CNc2cc(NC(=O)c3cccnc3Nc3ccc4ccncc4c3)ccc21 [Example 32, N-(3,3-Dimethyl-2,3-dihydro-1H-indol-6-yl)-2-(isoquinolin-7-ylamino)-nicotinamide]	< 1 µM
O=C(Nc1ccc(C(F)(F)C(F)(F)F)cc1)c1cccnc1Nc1ccc2ccncc2c1 [Example 11, 2-(Isoquinolin-7-ylamino)-N-(4-pentafluoroethyl-phenyl)-nicotinamide]	< 1 µM
O=C(Nc1ccc(C(F)(F)F)cc1)c1cccnc1Nc1ccc2ccncc2c1 [Example 12, 2-(Isoquinolin-7-ylamino)-N-(4-trifluoromethyl-phenyl)-nicotinamide]	< 1 µM
O=C1CSc2ccc(NC(=O)c3cccnc3Nc3ccc4ccncc4c3)cc2N1 [Example 55, 2-(isoquinolin-7-ylamino)-N-(3-oxo-3,4-dihydro-2H-1,4-benzothiazin-6-yl)nicotinamide]	< 1 µM
Cc1cc(NC(=O)c2cccnc2Nc2ccc3nc(N)ncc3c2)ccc1C(C)C [Example 63, 2-(2-aminoquinazolin-6-ylamino)-N-(3-methyl-4-(1-methylethyl)phenyl)nicotinamide]	< 1 µM
CC(=O)N1CC(C)(C)c2ccc(NC(=O)c3cccnc3Nc3ccc4ccncc4c3)cc21 [Example 31, N-(1-Acetyl-3,3-dimethyl-2,3-dihydro-1H-indol-6-yl)-2-(isoquinolin-7-ylamino)-nicotinamide]	< 1 µM
CC1(C)CC(=O)Nc2nc(NC(=O)c3cccnc3Nc3ccc4ncncc4c3)ccc21 [Example 59, N-(5,5-dimethyl-7-oxo-5,6,7,8-tetrahydro-1,8-naphthyridin-2-yl)-2-(quinazolin-6-ylamino)nicotinamide]	< 1 µM
COc1cc(NC(=O)c2cccnc2Nc2ccc3ccncc3c2)cc(C(F)(F)F)c1 [Example 33, 2-(Isoquinolin-7-ylamino)-N-(3-methoxy-5-trifluoromethyl-phenyl)-nicotinamide]	< 1 µM

SMILES	IC50
CC1(C)CNCc2cc(NC(=O)c3cccnc3Nc3ccc4ncncc4c3)ccc21 [Example 51, N-(4,4-Dimethyl-1,2,3,4-tetrahydro-isoquinolin-7-yl)-2-(quinazolin-6-ylamino)-nicotinamide]	< 1 µM
CC(C)(C)OC(=O)N1Cc2cc(NC(=O)c3cccnc3Nc3cnc4ccncc4c3)ccc2C(C)(C)C1 [Example 36, 4,4-Dimethyl-7-{[2-([1,6]naphthyridin-3-ylamino)-pyridine-3-carbonyl]-amino}-3,4-dihydro-1H-isoquinoline-2-carboxylic acid tert butyl ester]	< 1 µM
CC1(C)CNc2cc(NC(=O)c3cccnc3Nc3cccc4cnccc34)ccc21 [Example 70, N-(3,3-Dimethyl-2,3-dihydro-1H-indol-6-yl)-2-(isoquinolin-5-ylamino)-nicotinamide]	< 1 µM
CC1(C)CNCc2cc(NC(=O)c3ccccc3Nc3ccc4ccncc4n3)ccc21 [Example 77, N-(4,4-Dimethyl-1,2,3,4-tetrahydro-isoquinolin-7-yl)-2-([1,7]naphthyridin-2-ylamino)-benzamide]	< 1 µM
O=C(Nc1ccc(N2CCC2)nc1)c1cccnc1Nc1ccc2ccncc2c1 [Example 45, N-(6-Azetidin-1-yl-pyridin-3-yl)-2-(isoquinolin-7-ylamino)-nicotinamide]	< 1 µM
Cc1cc(NC(=O)c2cccnc2Nc2ccc3ccncc3c2)ccc1C(C)C [Example 49, N-(4-Isopropyl-3-methyl-phenyl)-2-(isoquinolin-7-ylamino)-nicotinamide]	< 1 µM
CC(C)c1ccc(NC(=O)c2cccnc2Nc2ccc3ccncc3c2)cc1 [Example 44, N-(4-Isopropyl-phenyl)-2-(isoquinolin-7-ylamino)-nicotinamide]	< 1 µM
CC(C(=O)O)c1ccc(NC(=O)c2cccnc2Nc2ccc3ccncc3c2)cc1 (racemic) [Example 53, 2(R,S)-(4-{[2-(Isoquinolin-7-ylamino)-pyridine-3-carbonyl]-amino}-phenyl)-propionic acid]	< 1 µM
Cc1cc(NC(=O)c2cccnc2Nc2ccc3ccncc3c2)ccc1N1CCCC1 [Example 62, 2-(isoquinolin-7-ylamino)-N-(3-methyl-4-(pyrrolidin-1-yl)phenyl)nicotinamide]	< 1 µM
CC1(C)CN(C(=O)[C@H]2CCCO2)Cc2cc(NC(=O)c3cccnc3Nc3ccc4ccncc4c3)ccc21 (stereo in doubt) [Example 74, N-[4,4-Dimethyl-2-(tetrahydro-furan-2-carbonyl)-1,2,3,4-tetrahydro-isoquinolin-7-yl]-2-(isoquinolin-7-ylamino)-nicotinamide]	< 1 µM
CC(C)(C)c1ccc(NC(=O)c2cccnc2Nc2cccc3ncccc23)cc1 [Example 72, N-(4-(1,1-dimethylethyl)phenyl)-2-(5-quinolinylamino)-3-pyridinecarboxamide]	< 1 µM
CC(C)(C)c1ccc(NC(=O)c2cccnc2Nc2ccc3nc(N)nc(N)c3c2)cc1 [Example 66, 2-(2,4-diaminoquinazolin-6-ylamino)-N-(4-tert-butylphenyl)nicotinamide]	< 1 µM
O=C(Nc1ccc(N2CCC2)cn1)c1cccnc1Nc1ccc2ccncc2c1 [Example 47, N-(5-Azetidin-1-yl-pyridin-2-yl)-2-(isoquinolin-7-ylamino)-nicotinamide]	< 1 µM
Cc1ccc(NC(=O)c2cccnc2Nc2ccc3nc(N)ncc3c2)cc1Cl [Example 64, 2-(2-aminoquinazolin-6-ylamino)-N-(3-chloro-4-methylphenyl)nicotinamide]	< 1 µM
CC(C)(C)c1ccc(NC(=O)c2cccnc2Nc2cnc3ccncc3c2)cc1 [Example 35, N-(4-tert-Butyl-phenyl)-2-([1,6]naphthyridin-3-ylamino)-nicotinamide]	< 1 µM
O=C(Nc1cc(OCC2CCCO2)cc(C(F)(F)F)c1)c1cccnc1Nc1ccc2ccncc2c1 (stereo not drawn) [Example 40]	< 1 µM
